# Laboratory results from PubChem BioAssay (NCI).
#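 Test compounds were applied to cells in 96-well plates for 48 hours at 5 doses. The concentration for full growth arrest is given as TGI.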
# How the values were obtained:
# Experiment in all cases: inhibition of tumour cell growth, NCI panel, 48 h
# A549 NSCLC = tested on: A549 NSCLC
# HOP-92 NSCLC = tested on: HOP-92 NSCLC
# HS 578T breast = tested on: HS 578T breast
# K-562 leukemia = tested on: K-562 leukemia
# MOLT-4 leukemia = tested on: MOLT-4 leukemia
# OVCAR-4 ovarian = tested on: OVCAR-4 ovarian
# OVCAR-5 ovarian = tested on: OVCAR-5 ovarian
# PC-3 prostate = tested on: PC-3 prostate
# UACC-62 melanoma = tested on: UACC-62 melanoma
# NCI-H226 lung = tested on: NCI-H226 lung
SMILES,TGI (A549 NSCLC) [µM],TGI (HOP-92 NSCLC) [µM],TGI (HS 578T breast) [µM],TGI (K-562 leukemia) [µM],TGI (MOLT-4 leukemia) [µM],TGI (OVCAR-4 ovarian) [µM],TGI (OVCAR-5 ovarian) [µM],TGI (PC-3 prostate) [µM],TGI (UACC-62 melanoma) [µM],TGI (NCI-H226 lung) [µM]
N#Cc1ccc(Oc2nc3ccc(C(F)(F)F)cc3nc2-c2ccccc2)cc1,35.9,27.5,44.5,55.9,43.6,32.4,26.2,27,> 100,
Clc1c(C(Cl)(Cl)Cl)nsc1N1CCCCC1,> 100,,> 100,53.2,37.3,> 100,> 100,95.3,> 100,36.2
CC(=O)Oc1ccc(/C=C/C(=O)O[C@H]2CCCC[C@@H]2OC(=O)/C=C/c2ccc(OC(C)=O)c(OC(C)=O)c2)cc1OC(C)=O,> 100,33.7,> 100,> 100,34.8,> 100,28.4,> 100,17.7,
CC(C)OC(=O)[C@@H](O)[C@H](CO)C1=CC([Si](C)(C)c2ccccc2)=CON1,> 100,,,> 100,> 100,> 100,> 100,> 100,> 100,> 100
CC(Cc1ccccc1)NC1=NCCO1 (configuration not stated),> 100,69.1,> 100,,77.9,> 100,> 100,> 100,> 100,> 100
C=C1C(=O)O[C@@H]2[C@H](O)[C@@H](C)[C@@H]3C=CC(=O)[C@@]3(C)[C@H](OC(=O)C=C(C)C)[C@H]12,10,2.21,,0.518,0.725,4.92,4.67,,1.87,4.17
CCN(CC)C(=O)N1CN(c2ccccc2)C2(CCN(CCCSc3ccc(F)cc3)CC2)C1=O,> 100,,16.6,27.4,12.5,> 100,36.9,36.5,,44.4
c1ccc2c(c1)CC1COc3ccccc3C1O2 (configuration not stated),> 100,> 100,,> 100,> 100,,> 100,> 100,> 100,> 100
O=c1c2ccccc2[nH]c2cc(O)cc(O)c12,> 100,,,> 100,> 100,> 100,,,> 100,> 100
CC(=O)/C=C(\O)c1[nH]c(C(=O)O)cc1C1CCN(Cc2ccccc2)C1=O (configuration not stated),81.4,58.8,> 100,95.1,53.9,> 100,80.2,> 100,41.7,
Cc1cc2nc(N3C(=O)/C(=C/c4ccc(Cl)cc4)N=C3c3ccccc3)sc2cc1C,> 100,56.5,74.2,> 100,> 100,91.8,92.7,98.9,> 100,
C(=C\c1cc(-c2ccc3ccccc3n2)nc2ccc3ccccc3c12)/c1ccc2ccccc2n1,> 100,,> 100,> 100,> 100,> 100,> 100,> 100,> 100,> 100
CCOC(=O)CSc1[nH]c(NC(=S)Nc2ccccc2)c(C(N)=O)c1C(N)=O,> 10,> 10,,> 10,> 10,> 10,,> 10,> 10,
C=CCN(c1cc(OC)c2[nH]cc(C)c2c1[N+](=O)[O-])S(C)(=O)=O,> 100,,> 100,> 100,> 100,> 100,> 100,> 100,> 100,> 100
O=C(OCc1ccccc1)N1CCN(C(=O)OCc2ccccc2)CCN(C(=O)OCc2ccccc2)CCN(C(=O)OCc2ccccc2)CCN(C(=O)OCc2ccccc2)CC1,> 100,> 100,> 100,,> 100,> 100,> 100,> 100,> 100,> 100
COc1ccc(-c2cc(-c3cc(F)c(Cl)cc3Cl)on2)cc1OC,> 100,> 100,> 100,> 100,49.5,> 100,> 100,> 100,,80.6
O=C1C(NCCN2CCOCC2)=C(Cl)C(=O)c2ncccc21,3.36,5.76,2.87,,5.69,,3.18,1.95,2.17,3.64
COc1ccc(Oc2nc(C#CC(C)(C)O)nc(Oc3ccc(OC)cc3)n2)cc1,28.4,,82.7,> 100,,,16.6,7.69,25,
CC(=O)N1c2ccccc2C(C)C1c1[nH]c2ccccc2c1C (configuration not stated),83.2,,42.4,> 100,77.3,> 100,34,> 100,48.9,72.3
COC(=O)c1ccccc1C1CN=NC12Cc1cccc(C)c1C2=O (configuration not stated),> 100,> 100,> 100,> 100,> 100,> 100,> 100,,> 100,> 100
c1ccc(N=C2SC3=NCCN3C2=Nc2ccccc2)cc1,,60.6,> 100,> 100,77,,34.9,60.6,22.7,36.3
CCCCCCC(C)OC(=O)/C=C(\CC(=O)OC(C)CCCCCC)C(=O)OC(C)CCCCCC (configuration not stated),> 100,> 100,,,> 100,> 100,> 100,,> 100,> 100
CSc1nc2c(=O)n(-c3ccccc3)c(=S)n(-c3ccccc3)c2s1,> 100,80.5,94.7,> 100,> 100,> 100,> 100,> 100,,86.3

SMILES,TGI (A549 NSCLC) [µM],TGI (HOP-92 NSCLC) [µM],TGI (HS 578T breast) [µM],TGI (K-562 leukemia) [µM],TGI (MOLT-4 leukemia) [µM],TGI (OVCAR-4 ovarian) [µM],TGI (OVCAR-5 ovarian) [µM],TGI (PC-3 prostate) [µM],TGI (UACC-62 melanoma) [µM],TGI (NCI-H226 lung) [µM]
C[C@]1(O)O[C@@H]2OCC[C@@H]2C2=C1C(=O)c1ccccc1C2=O,35.2,31,82.4,59.5,> 100,28.4,32.4,54.8,39.5,
COc1cc(C2c3cc4c(cc3[C@@H](Nc3cccc([N+](=O)[O-])c3)C3COC(=O)[C@H]23)OCO4)cc(OC)c1O (some centres not stated),4.38,27.7,,> 40.5,3.37,> 100,> 100,,15.7,7.94
NC(=O)CC(N=C1C(=O)OC(C(O)CO)C1=NC(CC(N)=O)C(=O)O)C(=O)O (configuration not stated),> 100,> 100,> 100,> 100,> 100,> 100,,> 100,> 100,> 100
CC(NC(=O)C(N)CC(=O)O)NC(=O)N(C)C(C)(C)C (configuration not stated),> 100,,> 100,> 100,> 100,> 100,> 100,> 100,> 100,> 100
CC(=O)OCC1OC(O/C=C(\CN=[N+]=[N-])C(C)=O)C(OC(C)=O)C(OC(C)=O)C1OC(C)=O (configuration not stated),46.2,56.6,> 100,23.6,10.5,43.1,32.9,27.8,25.3,
CC(=O)NC(Cc1ccc(OP(=O)(OCc2ccc([N+](=O)[O-])o2)N(C)CCCCCl)cc1)C(=O)NC(C)c1ccc(OCC2CCCCC2)c(C(N)=O)c1 (configuration not stated),18.2,,4.65,> 100,26.3,11.9,21.2,10.5,5.34,21.2
CC[C@@]12C=CC(=S)N(CCSc3ccccc3)[C@@H]1c1c(n(S(=O)(=O)c3ccc(OC)cc3)c3ccccc13)CC2,> 100,> 100,> 100,> 100,> 100,,> 100,> 100,> 100,
CCN(CC)CCCC(C)NC(=O)c1ccc2c(c1)C(=O)c1ccccc1C2=O (configuration not stated),57.4,63.7,,48.4,52.8,30.4,34.2,,39.3,49
Cc1nc2ccccc2n1Cc1nnc(N)o1,> 100,> 100,> 100,> 100,> 100,,> 100,> 100,> 100,
Nn1c(Cc2ccccc2)n[nH]c1=O,> 100,,> 100,> 100,> 100,> 100,> 100,> 100,> 100,> 100
CC(C)(C)c1ccc(C(C)(C)C)c(N2C(=O)C3ON=C(c4ccc([N+](=O)[O-])cc4)C3C2=O)c1 (configuration not stated),> 25,> 25,> 25,> 25,> 25,> 25,> 25,,> 25,> 25
CC(=O)OCC1=C(C)C[C@H]([C@@H](COC(C)=O)C2CCC3C4C[C@H]5O[C@]56CC=CC(=O)[C@]6(C)C4CC[C@@]32C)OC1=O (some centres not stated),7.12,2.87,17.8,,0.233,9.9,3.13,1.27,0.976,1.74
CC(C)C1CC[C@H](C)C[C@@H]1OC(=O)C(C(=O)O[C@H]1C[C@@H](C)CCC1C(C)C)C(O)[C@@H]1OC(C)(C)O[C@H]1C1COC(C)(C)O1 (some centres not stated),66.6,,36.5,32.2,42.8,50.9,31.9,,40.5,41.2
c1ccc2nc(CCC3CCCCN3)ccc2c1 (configuration not stated),> 100,> 100,> 100,> 100,,> 100,> 100,> 100,> 100,> 100
CC(NC(C#N)CC12CC3CC(CC(C3)C1)C2)c1ccccc1 (configuration not stated),> 100,31.5,,> 100,> 100,,> 100,> 100,> 100,
CS(=O)(=O)OCCCOS(C)(=O)=O,> 100,> 100,,> 100,> 100,> 100,> 100,,> 100,> 100
NC(=O)c1nnsc1NC=O,> 100,> 100,> 100,> 100,> 100,,> 100,> 100,> 100,> 100
CC1(CC2=C(C(=O)NCCO[Si](C)(C)C(C)(C)C)C3(OCCO3)C2=O)OCCO1,> 100,> 100,> 100,,> 100,> 100,> 100,> 100,> 100,> 100
NS(=O)(=O)c1nnc(NS(=O)(=O)c2ccccc2C(=O)O)s1,> 100,> 100,> 100,> 100,> 100,> 100,> 100,,> 100,> 100
COc1cc2c(cc1OCCCC(=O)Nc1cc(C(=O)NCCCN(C)C)n(C)n1)N=CC1CCCN1C2=O (configuration not stated),> 41.6,13.2,> 100,3.8,3.65,14.1,> 26.9,50.4,,> 38.2
O=C1ON=C2C3CC4CC12CC1(C3)C(=O)ON=C41,> 100,> 100,,> 100,> 100,> 100,> 100,> 100,> 100,> 100
O=C1c2ccccc2C(=O)c2c(O)ccc(O)c21,> 100,> 100,,> 100,> 100,> 100,> 100,,> 100,
COc1ccccc1NC(=O)O/N=C(/Cl)C(C)C,34.4,,67.9,10.9,4.5,,35.8,33.2,37.4,41.5
